# Results: patent US20040029965A1, “Formulations for reducing or eliminating toxicity of enviromental hormones containing ursodeoxycholic acid” (priority 2000, published 2004)
# Marks after values point to notes of the source that are not given here.
# Assays:
# Format in all cases: in vivo
# C57B1/6J mice [1] = experiment: Effect of UDCA on death (death rate, death time) of mice by a single subcutaneous injection of TCDD
# Protocol: (§1) Male C57B1/6J mice of 5 weeks old having the average weight of 18-22 g which had been bred in CRJ (Charles River in Japan) were purchased and used in this example as experimental animals. Those mice were acclimated under the constant breeding condition, i.e. the temperature of 24±1° C., the humidity of 60±10% and the light and darkness cycle of 12 hours, for one week and thereafter, utilized in the experiment.
# (§2) The Experimental animals were supplied with Purina powdered feed (purchased from Hae Eun Trade) and supplied with water ad libitum. All the animals were weighed twice a week during experimentation.
# (§3) 2,3,7,8-tetrachlorodibenzo-p-dioxin (TCDD) dissolved in toluene (purity of 95% or more as a result of gas chromatography analysis), manufactured by Chem. Services Inc. in USA, was volatilized with nitrogen to obtain powder. The obtained powder was dissolved in a mixed solvent containing acetone and corn oil with a volume ratio of 1:6. The resulting solution each containing 110, 27.5 and 6.9 μg/kg of TCDD was subcutaneously injected to mice at a volume of 5 ml per body weight. […] The mice were supplied with the feed from 10 days before (pre-administration) to 60 days after administration of TCDD (post-administration).
# (§4) The results are expressed as Mean±Standard Deviation values. For statistical analysis of the body weight, feed and water uptake, biochemical findings, hematological findings and the weight of organ in an acute toxicity test, verification was performed by one way analysis of variance (ANOVA) in case of equal distribution. In case significance was recognized in ANOVA, the Student's t-test was performed in the levels of p<0.05 and p<0.01.
# C57B1/6J mice [2] = experiment: Feed uptake of mice after a single subcutaneous injection of TCDD; set-up: unit not given here
# Protocol: as §1, §2, §3, §4
# C57B1/6J mice [3] = experiment: Hematological changes in mice by a single subcutaneous injection of TCDD; set-up: NEU / LYM / PLT: unit not given here
# Protocol: as §1, §3
# Upon completion of the experiment for 60 days, the experimental animals were fasted for 24 hours and anesthetized with ether. Then, they were abdominally incised and blood was gathered from abdominal vena cava. They were sacrificed by the release of blood. Liver, kidneys, testes and epididymides were extracted and all the extracted organs were weighed. Only the testes were separately kept and observed under optical and electron microscopes. For biochemical finding test, serum was separated from blood with a centrifuge and the separated serum was analyzed with an automated blood biochemical analyzer, Dimension (Dupont, USA). Blood was put to another blood gathering bottle and then, analyzed with an automated blood cell analyzer, Celldyn (Abbott, USA).
# as §4
# For hematological findings, white blood cell (WBC), neutrophil (NEU), lymphocyte (LYM), monocyte (MONO), eosinophil (EOS), basophil (BASO) and red blood cell (RBC) counts, and hemoglobin concentration (HGB), hematocrit (HCT), mean cell volume (MCV), mean corpuscular hemoglobin (MCH), mean corpuscular hemoglobin concentration (MCHC), red blood cell distribution width (RDW) and platelet count (PLT) were measured and the results are as follows.
compound,measurement,setting,value
"Clc1cc2c(cc1Cl)Oc1cc(Cl)c(Cl)cc1O2 [TCDD, 2,3,7,8-tetrachlorodibenzo-p-dioxin]",Death rate,C57B1/6J mice [1]; TCDD 6.9 μg/kg alone,0%
same,No. of dead mice/No. of administered mice,C57B1/6J mice [1]; TCDD 6.9 μg/kg alone,0/10
same,Death rate,C57B1/6J mice [1]; TCDD 27.5 μg/kg alone,30%
same,Death time (Mean ± SD),C57B1/6J mice [1]; TCDD 27.5 μg/kg alone,55 ± 5 days
same,No. of dead mice/No. of administered mice,C57B1/6J mice [1]; TCDD 27.5 μg/kg alone,3/10
same,Death time (Mean ± SD),C57B1/6J mice [1]; TCDD 110.0 μg/kg alone,35 ± 7 days
same,No. of dead mice/No. of administered mice,C57B1/6J mice [1]; TCDD 110.0 μg/kg alone,10/10
same,feed uptake,"C57B1/6J mice [2]; TCDD 6.9 μg/kg alone, 10 days",4.76 ± 0.74
same,feed uptake,"C57B1/6J mice [2]; TCDD 6.9 μg/kg alone, 20 days",4.33 ± 0.84
same,feed uptake,"C57B1/6J mice [2]; TCDD 6.9 μg/kg alone, 30 days",4.97 ± 1.00
same,feed uptake,"C57B1/6J mice [2]; TCDD 6.9 μg/kg alone, 40 days",4.97 ± 1.00
same,feed uptake,"C57B1/6J mice [2]; TCDD 6.9 μg/kg alone, 50 days",3.51 ± 0.31
same,feed uptake,"C57B1/6J mice [2]; TCDD 6.9 μg/kg alone, 60 days",3.28 ± 1.56
same,feed uptake,"C57B1/6J mice [2]; TCDD 27.5 μg/kg alone, 10 days",3.86 ± 0.87
same,feed uptake,"C57B1/6J mice [2]; TCDD 27.5 μg/kg alone, 20 days",3.17 ± 1.68
same,feed uptake,"C57B1/6J mice [2]; TCDD 27.5 μg/kg alone, 30 days",2.37 ± 0.37
same,feed uptake,"C57B1/6J mice [2]; TCDD 27.5 μg/kg alone, 40 days",1.90 ± 0.27
same,feed uptake,"C57B1/6J mice [2]; TCDD 27.5 μg/kg alone, 50 days",1.50 ± 0.16
same,feed uptake,"C57B1/6J mice [2]; TCDD 27.5 μg/kg alone, 60 days",1.58 ± 0.32
same,feed uptake,"C57B1/6J mice [2]; TCDD 110.0 μg/kg alone, 10 days",4.19 ± 0.96
same,feed uptake,"C57B1/6J mice [2]; TCDD 110.0 μg/kg alone, 20 days",3.21 ± 1.13
same,feed uptake,"C57B1/6J mice [2]; TCDD 110.0 μg/kg alone, 30 days",3.88 ± 0.96
same,feed uptake,"C57B1/6J mice [2]; TCDD 110.0 μg/kg alone, 40 days",2.23 ± 0.56
same,BASO,C57B1/6J mice [3]; TCDD 6.9 μg/kg alone,0.21 ± 0.12 10^3
same,EOS,C57B1/6J mice [3]; TCDD 6.9 μg/kg alone,0.01 ± 0.01 10^3
same,HCT,C57B1/6J mice [3]; TCDD 6.9 μg/kg alone,43.12 ± 5.04%
same,HGB,C57B1/6J mice [3]; TCDD 6.9 μg/kg alone,13.65 ± 1.34 g/dL
same,LYM,C57B1/6J mice [3]; TCDD 6.9 μg/kg alone,4.27 ± 2.05 10^3
same,MCH,C57B1/6J mice [3]; TCDD 6.9 μg/kg alone,14.70 ± 0.41 pg
same,MCHC,C57B1/6J mice [3]; TCDD 6.9 μg/kg alone,31.76 ± 0.70 g/dL
same,MCV,C57B1/6J mice [3]; TCDD 6.9 μg/kg alone,46.33 ± 1.97 fL
same,MONO,C57B1/6J mice [3]; TCDD 6.9 μg/kg alone,0.10 ± 0.07 10^3
same,NEU,C57B1/6J mice [3]; TCDD 6.9 μg/kg alone,0.40 ± 0.24 10^3
same,PLT,C57B1/6J mice [3]; TCDD 6.9 μg/kg alone,1140.88 ± 133.39 10^3
same,RBC,C57B1/6J mice [3]; TCDD 6.9 μg/kg alone,9.29 ± 0.85 10^6
same,RDW,C57B1/6J mice [3]; TCDD 6.9 μg/kg alone,20.38 ± 1.21%
same,WBC,C57B1/6J mice [3]; TCDD 6.9 μg/kg alone,5.94 ± 1.85 10^3
same,BASO,C57B1/6J mice [3]; TCDD 27.5 μg/kg alone,0.17 ± 0.07 10^3
same,EOS,C57B1/6J mice [3]; TCDD 27.5 μg/kg alone,0.018 ± 0.028 10^3
same,HCT,C57B1/6J mice [3]; TCDD 27.5 μg/kg alone,39.12 ± 3.25 %
same,HGB,C57B1/6J mice [3]; TCDD 27.5 μg/kg alone,12.90 ± 1.00 g/dL
same,LYM,C57B1/6J mice [3]; TCDD 27.5 μg/kg alone,1.43 ± 0.60** 10^3
same,MCH,C57B1/6J mice [3]; TCDD 27.5 μg/kg alone,14.17 ± 0.40 pg
same,MCHC,C57B1/6J mice [3]; TCDD 27.5 μg/kg alone,33.02 ± 0.86 g/dL
same,MCV,C57B1/6J mice [3]; TCDD 27.5 μg/kg alone,42.97 ± 0.56 fL
same,MONO,C57B1/6J mice [3]; TCDD 27.5 μg/kg alone,0.07 ± 0.04 10^3
same,NEU,C57B1/6J mice [3]; TCDD 27.5 μg/kg alone,2.58 ± 0.97** 10^3
same,PLT,C57B1/6J mice [3]; TCDD 27.5 μg/kg alone,1473.17 ± 110.35** 10^3
same,RBC,C57B1/6J mice [3]; TCDD 27.5 μg/kg alone,9.10 ± 0.71 10^6
same,RDW,C57B1/6J mice [3]; TCDD 27.5 μg/kg alone,20.97 ± 2.27%
same,WBC,C57B1/6J mice [3]; TCDD 27.5 μg/kg alone,4.29 ± 1.05 10^3
